ChEMBL document CHEMBL5154756 (Bioorg Med Chem, 2022)
Activity calls are given as the source filed them. No cut-off for these calls is given here.

Experiments:
MCF7 = experiment: Antiproliferative activity against human MCF7 cells over expressing GLUT1 measured after 72 hrs by MTT assay; assay type: functional, cell-based; details: MCF7, 72 h
HT-29 [1] = experiment: Antiproliferative activity against human HT-29 cells over expressing GLUT1 measured after 72 hrs by MTT assay; assay type: functional, cell-based; details: HT-29, 72 h
Hep 3B2 = experiment: Antiproliferative activity against human Hep3B cells measured after 72 hrs by MTT assay; assay type: functional, cell-based
[2] = Selectivity ratio of IC50 for human Hep3B cells to IC50 for human MCF7 cells; assay type: functional
[3] = Selectivity ratio of IC50 for human Hep3B cells to IC50 for human HT-29 cells; assay type: functional
Tubulin (Homo sapiens) [4] = target: T1, Tubulin (Homo sapiens) (UniProt P68371+Q9H4B7+P0DPH7+P68366+Q13509+Q71U36+P04350+Q3ZCM7+P07437+P68363+Q9BQE3+Q6PEY2+Q13885+Q9BVA1+Q9BUF5); experiment: Inhibition of tubulin polymerization in human A549 cells assessed as appearance of short microtubule at 0.766 uM measured after 24 hrs by immunofluorescence confocal microscopic analysis; assay type: cell-based
[5] = Cytotoxicity against HUVEC measured after 72 hrs by MTT assay; assay type: toxicity, cell-based; details: human, HUVEC cells
HT-29 [6] = experiment: Antiproliferative activity against human HT-29 cells over expressing GLUT1 assessed as cell viability at 4 uM measured after 48 hrs by MTT assay relative to control; assay type: functional; details: read-out: Activity
HT-29 [7] = experiment: Antiproliferative activity against human HT-29 cells over expressing GLUT1 assessed as cell viability at 8 uM measured after 48 hrs by MTT assay relative to control; assay type: functional; details: read-out: Activity
HT-29 [8] = experiment: Antiproliferative activity against human HT-29 cells over expressing GLUT1 assessed as cell viability at 4 uM measured after 48 hrs in presence of GLUT1-specific inhibitor quercetin by MTT assay relative to control; assay type: functional; details: read-out: Activity
HT-29 [9] = experiment: Antiproliferative activity against human HT-29 cells over expressing GLUT1 assessed as cell viability at 8 uM measured after 48 hrs in presence of GLUT1-specific inhibitor quercetin by MTT assay relative to control; assay type: functional; details: read-out: Activity
Tubulin (Sus scrofa) = Tubulin (Sus scrofa) (UniProt P02554+P02550); experiment: Inhibition of porcine brain tubulin polymerization assessed as inhibition of microtubule polymerization measured at 1 min interval for 90 mins by microplate reader method; details: dose 12.5-25 µM, DDE = dose-dependent effect
Tubulin (Homo sapiens) [10] = target: T1, Tubulin (Homo sapiens); experiment: Inhibition of tubulin polymerization in human A549 cells assessed as appearance of wrapped microtubule around nucleus at 0.766 uM measured after 24 hrs by immunofluorescence confocal microscopic analysis; assay type: cell-based
HT-29 [11] = experiment: Antiproliferative activity against human HT-29 cells over expressing GLUT1 assessed as cell viability measured after 48 hrs by MTT assay relative to control; assay type: functional
HT-29 [12] = experiment: Antiproliferative activity against human HT-29 cells over expressing GLUT1 assessed as cell viability measured after 48 hrs in presence of GLUT1-specific inhibitor quercetin by MTT assay relative to control; assay type: functional

Tubulin (Sus scrofa), sequence (P02550 whole entry, looked up): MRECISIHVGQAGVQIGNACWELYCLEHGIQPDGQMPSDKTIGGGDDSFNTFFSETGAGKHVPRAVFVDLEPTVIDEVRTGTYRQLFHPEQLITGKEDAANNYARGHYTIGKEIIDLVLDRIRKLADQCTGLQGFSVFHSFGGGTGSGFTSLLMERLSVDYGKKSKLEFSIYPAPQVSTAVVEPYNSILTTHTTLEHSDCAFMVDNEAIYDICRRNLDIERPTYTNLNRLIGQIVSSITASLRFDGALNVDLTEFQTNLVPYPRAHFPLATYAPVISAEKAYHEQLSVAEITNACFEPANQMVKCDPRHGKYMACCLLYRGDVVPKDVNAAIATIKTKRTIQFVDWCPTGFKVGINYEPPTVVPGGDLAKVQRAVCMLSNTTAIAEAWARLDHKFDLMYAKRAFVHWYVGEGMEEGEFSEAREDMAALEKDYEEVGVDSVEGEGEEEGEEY
Tubulin (Sus scrofa), sequence (P02554 whole entry, looked up): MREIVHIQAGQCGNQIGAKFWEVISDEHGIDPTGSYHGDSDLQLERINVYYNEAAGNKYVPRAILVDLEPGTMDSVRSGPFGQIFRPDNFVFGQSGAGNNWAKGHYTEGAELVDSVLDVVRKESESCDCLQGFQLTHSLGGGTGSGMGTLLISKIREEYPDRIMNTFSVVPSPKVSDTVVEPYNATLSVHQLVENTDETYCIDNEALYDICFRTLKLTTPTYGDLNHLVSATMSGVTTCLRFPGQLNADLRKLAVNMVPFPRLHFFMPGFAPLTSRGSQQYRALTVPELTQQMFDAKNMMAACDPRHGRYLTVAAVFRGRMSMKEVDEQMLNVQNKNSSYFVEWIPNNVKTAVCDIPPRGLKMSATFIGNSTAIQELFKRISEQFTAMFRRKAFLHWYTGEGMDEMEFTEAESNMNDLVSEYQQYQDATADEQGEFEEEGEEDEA

Row | SMILES | IC50 (MCF7) | IC50 (HT-29 [1]) | IC50 (Hep 3B2) | Ratio IC50 [2] | Ratio IC50 [3] | further results
1 | COc1cc2c(c(OC)c1OC)-c1ccc(OC)c(=O)cc1[C@@H](NC(=O)CCCCC(=O)OC[C@H]1OC(O)[C@H](O)[C@@H](O)[C@@H]1O)CC2 (some centres not stated) | > 10 µM | 9.73 µM | > 10 µM | – | – | –
2 | COc1cc2c(c(OC)c1OC)-c1ccc(OC)c(=O)cc1[C@@H](NC(=O)CCCC(=O)OC[C@H]1OC(O)[C@H](O)[C@@H](O)[C@@H]1O)CC2 (some centres not stated) | > 10 µM | 4.14 µM | > 10 µM | – | – | –
3 | COc1cc2c(c(OC)c1OC)-c1ccc(OC)c(=O)cc1[C@@H](NC(=O)CCC(=O)OC[C@H]1OC(O)[C@H](O)[C@@H](O)[C@@H]1O)CC2 (some centres not stated) | 1.15 µM | 1.09 µM | 6.35 µM | 5.52 | 5.83 | –
4 | COc1cc2c(c(OC)c1OC)-c1ccc(OC)c(=O)cc1[C@@H](NC(=O)CCCC(=O)O[C@H]1[C@H](O)[C@@H](CO)OC(O)[C@@H]1O)CC2 (some centres not stated) | 7.17 µM | 6.47 µM | 8.91 µM | 1.24 | 1.38 | –
5 | COc1cc2c(c(OC)c1OC)-c1ccc(OC)c(=O)cc1[C@@H](NC(=O)CCCCC(=O)O[C@H]1[C@H](O)[C@@H](CO)OC(O)[C@@H]1O)CC2 (some centres not stated) | > 10 µM | > 10 µM | > 10 µM | – | – | –
6 | COc1cc2c(c(OC)c1OC)-c1ccc(OC)c(=O)cc1[C@@H](NC(=O)COCC(=O)OC[C@H]1OC(O)[C@@H](O)[C@@H](O)[C@@H]1O)CC2 (some centres not stated) | 2.2 µM | 2.93 µM | 6.43 µM | 2.92 | 2.19 | –
7 | COc1cc2c(c(OC)c1OC)-c1ccc(OC)c(=O)cc1[C@@H](NC(=O)CCCCC(=O)OC[C@H]1OC(O)[C@@H](O)[C@@H](O)[C@@H]1O)CC2 (some centres not stated) | > 10 µM | > 10 µM | > 10 µM | – | – | –
8 | COc1cc2c(c(OC)c1OC)-c1ccc(OC)c(=O)cc1[C@@H](NC(=O)CSCC(=O)OC[C@H]1OC(O)[C@H](O)[C@@H](O)[C@@H]1O)CC2 (some centres not stated) | 3.56 µM | 1.16 µM | 9.26 µM | 2.6 | 7.98 | –
9 | COc1cc2c(c(OC)c1OC)-c1ccc(OC)c(=O)cc1[C@@H](NC(=O)COCC(=O)OC[C@H]1OC(O)[C@H](O)[C@@H](O)[C@@H]1O)CC2 (some centres not stated) | 3.08 µM | 0.24 µM | 4.57 µM | 1.48 | 19.04 | –
10 | COc1cc2c(c(OC)c1OC)-c1ccc(OC)c(=O)cc1[C@@H](NC(=O)CSCC(=O)OC[C@H]1OC(O)[C@@H](O)[C@@H](O)[C@@H]1O)CC2 (some centres not stated) | 6.05 µM | 2.11 µM | > 10 µM | – | – | –
11 | COc1cc2c(c(OC)c1OC)-c1ccc(OC)c(=O)cc1[C@@H](NC(=O)CSCC(=O)O[C@H]1[C@H](O)[C@@H](CO)OC(O)[C@@H]1O)CC2 (some centres not stated) | 0.65 µM | 0.79 µM | 8.56 µM | 13.17 | 10.84 | inhibition (Tubulin (Homo sapiens) [4]): Active; IC50 at 72 h [5]: 1.88 µM; viability at 4 µM (HT-29 [6]): 13.2%; viability at 8 µM (HT-29 [7]): 12.5%; viability at 4 µM (HT-29 [8]): 22.8%; viability at 8 µM (HT-29 [9]): 20.1%; inhibition (Tubulin (Sus scrofa)): Dde; inhibition (Tubulin (Homo sapiens) [10]): Active
12 | COc1cc2c(c(OC)c1OC)-c1ccc(OC)c(=O)cc1[C@@H](NC(C)=O)CC2 [COLCHICINE] | 0.043 µM | – | 0.14 µM | – | – | Activity (HT-29 [11]): 12.7%; IC50 at 72 h [5]: 0.012 µM; Activity (HT-29 [12]): 14.8%
13 | COc1cc2c(c(OC)c1OC)-c1ccc(OC)c(=O)cc1[C@@H](NC(=O)COCC(=O)O[C@H]1[C@H](O)[C@@H](CO)OC(O)[C@@H]1O)CC2 (some centres not stated) | 1.2 µM | 0.83 µM | > 10 µM | – | – | –
14 | COc1cc2c(c(OC)c1OC)-c1ccc(OC)c(=O)cc1[C@@H](NC(=O)CCCC(=O)OC[C@H]1OC(O)[C@@H](O)[C@@H](O)[C@@H]1O)CC2 (some centres not stated) | > 10 µM | > 10 µM | > 10 µM | – | – | –
15 | COc1cc2c(c(OC)c1OC)-c1ccc(OC)c(=O)cc1[C@@H](NC(=O)CCC(=O)O[C@H]1[C@H](O)[C@@H](CO)OC(O)[C@@H]1O)CC2 (some centres not stated) | 0.76 µM | 0.98 µM | 7.03 µM | 9.25 | 7.17 | –
16 | COc1cc2c(c(OC)c1OC)-c1ccc(OC)c(=O)cc1[C@@H](NC(=O)CCC(=O)OC[C@H]1OC(O)[C@@H](O)[C@@H](O)[C@@H]1O)CC2 (some centres not stated) | 0.67 µM | – | 2.91 µM | 4.34 | – | –
